{"source": "patent US20060211725A1", "about": "“Use” (Astellas Pharma Inc., priority 2002, published 2006)", "assay_type_in_all_cases": "in vivo, rat", "key": {"[1]": {"system": "F344 kidney allograft in LEW recipient rats", "experiment": "Recipient kidney function, treatment with brief tacrolimus (Example 4)", "details": "brief dose of tacrolimus 1 mg/kg day 0-9 alone; allograft control week 7", "experimental": "(§1) The rats and kidney transplantation methods described in Example 1 were used. Tacrolimus at dose of 1 mg/kg from day 0 to day 9 after transplantation, and the compound (I) at doses of 10 mg/kg and 15 mg/kg from day 28 today 60 after transplantation were administered orally to recipient rats. In this study LEW recipients were briefly treated with oral tacrolimus at 1 mg/kg/day for 10 days after transplantation to avoid acute rejection and slow chronic rejection that gradually destroys the F344 kidney graft, resulting in functional and histological changes similar to the chronic rejection in human. The isograft, untreated allograft and allograft treated with tacrolimus 1 mg/kg for 10 days alone served as control groups. Blood and urine samples were collected once a week from recipients with kidney grafts described in Example 1 for measuring their plasma creatinine and proteinuria. Plasma creatinine was tested by Sigma Creatinine Kit and proteinuria by Bio-Rad Protein assay."}, "[2]": {"system": "F344 kidney allograft in LEW recipient rats", "experiment": "Kidney allograft survival, treatment with brief tacrolimus (Example 4)", "details": "Tacrolimus 1 mg/kg PO, 0-9 day, alone", "experimental": "as §1"}, "[3]": {"system": "F344 kidney allograft in LEW recipient rats", "experiment": "Kidney allograft survival, combination with tacrolimus (Example 2)", "details": "Tacrolimus 1 mg/kg PO, 0-90 day, alone", "experimental": "The rats and kidney transplantation methods described in Example 1 were used. The compound (I) at dose of 3 mg/kg and tacrolimus at dose of 1 mg/kg, were administered orally to recipient rats daily for 90 days after transplantation. The isograft, untreated allograft, and allograft treated with tacrolimus 1 mg/kg for 90 days alone served as control groups."}}}
{"smiles": "C=CC[C@@H]1/C=C(\\C)C[C@H](C)C[C@H](OC)[C@H]2O[C@@](O)(C(=O)C(=O)N3CCCC[C@H]3C(=O)O[C@H](/C(C)=C/[C@@H]3CC[C@@H](O)[C@H](OC)C3)[C@H](C)[C@@H](O)CC1=O)[C@H](C)C[C@@H]2OC", "note": "[Tacrolimus, tacrolimus]", "values": [{"measurement": "week post transplantation after which plasma creatinine increased rapidly", "setting": "[1]", "result": 8, "unit": "week"}, {"measurement": "Survival day", "setting": "[2]; n=5", "result": ">90", "unit": "days"}, {"measurement": "Survival rate", "setting": "[2]; untreated allograft 40%", "result": 100, "unit": "%"}, {"measurement": "Survival day", "setting": "[3]; n=4", "result": ">90", "unit": "days"}, {"measurement": "Survival rate (90 days)", "setting": "[3]; untreated allograft 40%", "result": 100, "unit": "%"}]}
